Measured values as given in PMC5837865 (Clinical cancer research : an official journal of the …, 2017).
Values after ≈ are worked out from the molar mass of the structure shown. Read-outs that look alike come from different tables or passages of the source.

Key:
[1] = target: CYP2C8 (Homo sapiens, UniProt P10632); test: Cytochrome P450 inhibition; type: biochemical; conditions: read-out: IC50 CYP2C8
[2] = test system: PC-3, DU145 and C42B cells; test: MTT cell survival, prostate cancer lines; type: cell-based, human; conditions: 0.5 mg/ml, 48h, pH 7.4; range over PC-3, DU145 and C42B
[3] = test system: CK KD PC-3 cells; test: MTT cell survival in choline kinase knockdown cells; type: cell-based, human; conditions: 0.5 mg/ml, CK KD (siRNA) PC-3 cells, 48h
[4] = test system: Ki67; test: Ki67 immunohistochemistry of tumor sections; type: in vivo, athymic male BALB/c mice; conditions: PC-3-luc xenografts, 40 mg/kg; control tumors ~62%
[5] = test system: RWPE-1 cells; test: MTT cell survival, near-normal prostate cells; type: cell-based; conditions: 0.5 mg/ml, 48h, pH 7.4, RWPE-1
[6] = test system: HIF1-α transcripts; test: RT-PCR transcript levels; type: cell-based, human; conditions: PC-3, 2 mg/ml, 48h
[7] = test system: PC-3 cells; test: Annexin-V flow cytometry; type: cell-based, human; conditions: control ~8%
[8] = test system: PC-3 cells; test: Intracellular levels of PhosE and Etn by LC-MS/MS; type: cell-based, human; conditions: PC-3, 1 mg/ml treatment, 48h, pH 7.4
[9] = target: CYP2B6 (Homo sapiens, UniProt P20813); test: Cytochrome P450 inhibition; type: biochemical; conditions: read-out: IC50 CYP2B6
Chain of CYP2B6 (P20813 whole entry): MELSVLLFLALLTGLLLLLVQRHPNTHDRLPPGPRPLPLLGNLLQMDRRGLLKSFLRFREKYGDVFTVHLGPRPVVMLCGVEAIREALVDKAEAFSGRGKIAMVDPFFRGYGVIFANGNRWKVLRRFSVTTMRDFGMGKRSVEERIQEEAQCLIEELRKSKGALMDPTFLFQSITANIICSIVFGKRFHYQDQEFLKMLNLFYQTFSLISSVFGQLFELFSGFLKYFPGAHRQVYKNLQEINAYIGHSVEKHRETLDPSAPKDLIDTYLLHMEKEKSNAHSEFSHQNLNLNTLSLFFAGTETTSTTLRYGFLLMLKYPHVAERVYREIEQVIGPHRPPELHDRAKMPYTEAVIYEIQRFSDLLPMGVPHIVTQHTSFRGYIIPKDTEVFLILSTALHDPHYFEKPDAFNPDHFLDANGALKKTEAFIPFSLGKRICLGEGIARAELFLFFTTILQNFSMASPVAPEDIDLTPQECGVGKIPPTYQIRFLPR

[10] = test system: OVCAR-3; test: MTT cell proliferation assay; type: cell-based; conditions: OVCAR-3 (ovary)
[11] = target: CYP3A4 (Homo sapiens, UniProt P08684); test: Cytochrome P450 inhibition; type: biochemical; conditions: read-out: IC50 CYP3A4
Chain of CYP3A4 (P08684 whole entry): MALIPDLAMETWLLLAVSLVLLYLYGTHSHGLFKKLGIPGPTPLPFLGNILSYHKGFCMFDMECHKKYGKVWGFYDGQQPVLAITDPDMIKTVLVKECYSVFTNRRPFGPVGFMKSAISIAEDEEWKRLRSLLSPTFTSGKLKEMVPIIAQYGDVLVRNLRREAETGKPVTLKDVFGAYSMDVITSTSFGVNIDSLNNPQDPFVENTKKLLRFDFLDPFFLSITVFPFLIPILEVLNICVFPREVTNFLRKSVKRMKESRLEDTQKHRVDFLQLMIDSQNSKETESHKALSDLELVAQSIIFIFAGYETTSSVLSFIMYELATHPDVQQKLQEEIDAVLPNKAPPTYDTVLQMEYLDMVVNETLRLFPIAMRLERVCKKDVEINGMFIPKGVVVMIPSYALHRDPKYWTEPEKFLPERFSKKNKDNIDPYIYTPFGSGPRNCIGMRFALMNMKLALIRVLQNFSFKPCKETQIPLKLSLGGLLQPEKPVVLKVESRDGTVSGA

[12] = Acute oral toxicity; type: in vivo, Sprague-Dawley (SD) rats
[13] = test system: PC-3-luc xenografts; test: PC-3-luc prostate cancer xenograft tumor growth; type: in vivo, athymic male BALB/c mice
[14] = test system: CFPAC; test: MTT cell proliferation assay; type: cell-based; conditions: CFPAC (pancreas)
[15] = test system: MDA-MB-468; test: MTT cell proliferation assay; type: cell-based; conditions: MDA-MB-468 (breast)
[16] = test system: PC-3 cells; test: MTT cell proliferation assay; type: cell-based, human; conditions: pH 7.4
[17] = test system: PC-3 cells; test: Clonogenic; type: cell-based, human; conditions: 2 mg/ml, PC-3, pH 7.4
[18] = Stability in simulated intestinal fluid; type: in vitro ADME; conditions: 10 µM
[19] = target: CYP2D6 (Homo sapiens, UniProt P10635); test: Cytochrome P450 inhibition; type: biochemical; conditions: read-out: IC50 CYP2D6
Chain of CYP2D6 (P10635 whole entry): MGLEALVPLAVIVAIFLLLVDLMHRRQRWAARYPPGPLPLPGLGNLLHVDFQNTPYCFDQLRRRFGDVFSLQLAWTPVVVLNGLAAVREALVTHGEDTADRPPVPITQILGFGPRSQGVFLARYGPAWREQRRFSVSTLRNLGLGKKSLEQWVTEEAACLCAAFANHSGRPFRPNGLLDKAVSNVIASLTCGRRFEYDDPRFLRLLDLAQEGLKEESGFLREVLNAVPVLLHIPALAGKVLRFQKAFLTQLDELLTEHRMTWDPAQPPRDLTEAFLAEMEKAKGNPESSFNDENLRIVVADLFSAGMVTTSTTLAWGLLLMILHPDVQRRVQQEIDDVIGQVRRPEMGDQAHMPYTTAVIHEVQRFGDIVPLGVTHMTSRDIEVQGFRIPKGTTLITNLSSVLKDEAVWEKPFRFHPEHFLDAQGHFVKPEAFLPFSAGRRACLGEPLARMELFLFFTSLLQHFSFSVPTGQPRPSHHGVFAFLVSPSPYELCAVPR

[20] = target: CYP2E1 (Homo sapiens, UniProt P05181); test: Cytochrome P450 inhibition; type: biochemical; conditions: read-out: IC50 CYP2E1
Chain of CYP2E1 (P05181 whole entry): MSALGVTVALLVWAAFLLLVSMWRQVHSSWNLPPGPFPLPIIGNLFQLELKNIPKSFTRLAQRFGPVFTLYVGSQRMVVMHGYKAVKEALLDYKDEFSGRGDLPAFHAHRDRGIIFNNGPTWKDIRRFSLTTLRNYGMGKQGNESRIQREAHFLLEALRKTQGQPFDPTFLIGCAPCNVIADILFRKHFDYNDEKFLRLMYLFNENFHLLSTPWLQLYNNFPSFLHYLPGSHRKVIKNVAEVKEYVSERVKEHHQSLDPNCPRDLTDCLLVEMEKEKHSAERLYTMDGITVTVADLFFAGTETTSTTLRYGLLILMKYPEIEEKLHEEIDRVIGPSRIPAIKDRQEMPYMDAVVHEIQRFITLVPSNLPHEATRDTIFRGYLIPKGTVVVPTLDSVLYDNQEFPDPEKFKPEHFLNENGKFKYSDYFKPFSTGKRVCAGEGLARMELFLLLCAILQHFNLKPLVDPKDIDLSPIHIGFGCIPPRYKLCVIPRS

[21] = target: CYP2C19 (Homo sapiens, UniProt P33261); test: Cytochrome P450 inhibition; type: biochemical; conditions: read-out: IC50 CYP2C19
Chain of CYP2C19 (P33261 whole entry): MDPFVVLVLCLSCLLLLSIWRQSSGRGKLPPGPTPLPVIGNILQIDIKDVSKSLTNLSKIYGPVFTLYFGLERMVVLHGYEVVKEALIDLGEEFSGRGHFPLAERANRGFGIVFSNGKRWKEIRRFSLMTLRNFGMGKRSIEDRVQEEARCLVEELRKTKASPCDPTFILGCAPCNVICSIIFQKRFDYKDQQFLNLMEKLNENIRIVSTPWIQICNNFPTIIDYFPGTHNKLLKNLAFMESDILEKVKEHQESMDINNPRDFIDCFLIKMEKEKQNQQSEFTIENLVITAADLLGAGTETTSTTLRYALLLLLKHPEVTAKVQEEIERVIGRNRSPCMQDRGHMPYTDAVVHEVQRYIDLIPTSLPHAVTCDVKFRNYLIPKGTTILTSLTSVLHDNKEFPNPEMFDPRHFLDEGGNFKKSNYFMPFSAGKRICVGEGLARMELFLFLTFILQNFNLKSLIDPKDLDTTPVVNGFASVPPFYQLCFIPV

[22] = Stability in simulated gastric fluid; type: in vitro ADME; conditions: 10 µM, SGF pH 1.2, over 1h, LC-MS/MS
[23] = target: CYP2A6 (Homo sapiens, UniProt P11509); test: Cytochrome P450 inhibition; type: biochemical; conditions: read-out: IC50 CYP2A6
Chain of CYP2A6 (P11509 whole entry): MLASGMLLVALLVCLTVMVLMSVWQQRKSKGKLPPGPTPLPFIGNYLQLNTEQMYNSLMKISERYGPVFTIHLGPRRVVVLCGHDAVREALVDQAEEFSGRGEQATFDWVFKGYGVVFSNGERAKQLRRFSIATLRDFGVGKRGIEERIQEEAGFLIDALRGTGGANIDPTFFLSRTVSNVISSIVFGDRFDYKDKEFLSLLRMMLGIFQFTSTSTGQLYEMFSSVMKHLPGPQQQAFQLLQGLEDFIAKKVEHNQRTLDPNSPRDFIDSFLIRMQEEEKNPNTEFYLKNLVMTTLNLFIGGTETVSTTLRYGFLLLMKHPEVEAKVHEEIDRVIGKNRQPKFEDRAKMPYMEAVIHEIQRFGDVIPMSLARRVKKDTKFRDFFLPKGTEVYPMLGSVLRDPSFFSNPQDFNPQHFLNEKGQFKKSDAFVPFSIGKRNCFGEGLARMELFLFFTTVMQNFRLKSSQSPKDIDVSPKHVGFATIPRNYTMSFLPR

[24] = target: CYP2C9 (Homo sapiens, UniProt P11712); test: Cytochrome P450 inhibition; type: biochemical; conditions: read-out: IC50 CYP2C9
Chain of CYP2C9 (P11712 whole entry): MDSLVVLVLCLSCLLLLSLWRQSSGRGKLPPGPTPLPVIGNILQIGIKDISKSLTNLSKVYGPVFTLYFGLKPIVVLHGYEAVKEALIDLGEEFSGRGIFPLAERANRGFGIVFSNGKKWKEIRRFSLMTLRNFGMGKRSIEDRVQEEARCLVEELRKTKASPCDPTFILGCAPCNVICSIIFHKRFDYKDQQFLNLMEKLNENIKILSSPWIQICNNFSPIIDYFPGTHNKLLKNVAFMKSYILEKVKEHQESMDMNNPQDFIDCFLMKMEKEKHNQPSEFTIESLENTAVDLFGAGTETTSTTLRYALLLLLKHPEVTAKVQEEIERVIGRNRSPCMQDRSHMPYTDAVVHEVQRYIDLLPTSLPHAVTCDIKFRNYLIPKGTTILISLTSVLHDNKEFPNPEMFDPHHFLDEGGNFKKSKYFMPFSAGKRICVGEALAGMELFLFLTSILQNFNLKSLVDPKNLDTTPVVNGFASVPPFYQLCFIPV

[25] = Etn absorption from formulations of different pH/acid; type: in vivo; conditions: pH 5/7.4; H3PO4/HCl/H2SO4
[26] = target: CYP1A2 (Homo sapiens, UniProt P05177); test: Cytochrome P450 inhibition; type: biochemical
Chain of CYP1A2 (P05177 whole entry): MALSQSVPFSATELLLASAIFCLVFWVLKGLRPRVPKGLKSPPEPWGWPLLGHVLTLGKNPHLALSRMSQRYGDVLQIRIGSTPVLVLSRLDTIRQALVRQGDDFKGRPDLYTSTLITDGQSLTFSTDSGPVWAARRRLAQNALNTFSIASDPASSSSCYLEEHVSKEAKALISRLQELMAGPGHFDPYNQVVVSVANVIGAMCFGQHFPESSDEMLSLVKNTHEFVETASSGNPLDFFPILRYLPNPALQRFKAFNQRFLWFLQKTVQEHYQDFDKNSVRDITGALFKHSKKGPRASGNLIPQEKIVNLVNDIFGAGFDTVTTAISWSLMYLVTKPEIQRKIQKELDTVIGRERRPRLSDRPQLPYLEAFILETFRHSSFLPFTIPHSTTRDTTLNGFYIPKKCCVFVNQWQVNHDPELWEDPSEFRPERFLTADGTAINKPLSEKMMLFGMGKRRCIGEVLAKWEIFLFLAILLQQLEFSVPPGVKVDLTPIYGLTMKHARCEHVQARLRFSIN

[27] = test system: p53 transcript; test: RT-PCR transcript levels; type: cell-based, human; conditions: PC-3, 2 mg/ml, 48h
[28] = test system: PC-3 cells; test: Intracellular glucose and glutamine levels in cultured cells; type: cell-based, human; conditions: PC-3, 2 mg/ml, 48h
[29] = test system: PC-3-luc tumors; test: Glucose and glutamine levels in tumors by LC-MS/MS; type: in vivo, athymic male BALB/c mice; conditions: 40 mg/kg Etn-treated PC-3-luc tumors
[30] = test system: DU145 xenografts; test: DU145 prostate cancer xenograft tumor growth; type: in vivo, athymic male BALB/c mice
[31] = test system: PC-3 cells; test: Oxygen consumption rate; type: cell-based, human; conditions: PC-3, 2 mg/ml, 48h, 1 million cells/ml
[32] = test system: HCT116 xenograft; test: HCT116 colon cancer xenograft tumor growth; type: in vivo, mice; conditions: 2 weeks
[33] = test system: HIF1-α; test: HIF1-α protein expression in tumors; type: in vivo, athymic male BALB/c mice; conditions: PC-3-luc xenografts, Etn-treated
[34] = type: in vivo, BALB/c mice; conditions: for Cmax / time to reach peak plasma concentration: plasma, label = analyte measured
[35] = test system: cancer cells of varying tissue-origin; test: Proliferation and colony formation, cancer cells of varying tissue-origin; type: cell-based
[36] = Blood to plasma concentration ratio; type: in vitro ADME; conditions: BALB/c mice blood
[37] = type: in vivo, BALB/c mice
[38] = 40 mg/kg oral gavage, pH 5, 4 weeks
[39] = after 4 weeks of 40 mg/kg oral Etn

Chain of CYP2C8 (P10632 whole entry): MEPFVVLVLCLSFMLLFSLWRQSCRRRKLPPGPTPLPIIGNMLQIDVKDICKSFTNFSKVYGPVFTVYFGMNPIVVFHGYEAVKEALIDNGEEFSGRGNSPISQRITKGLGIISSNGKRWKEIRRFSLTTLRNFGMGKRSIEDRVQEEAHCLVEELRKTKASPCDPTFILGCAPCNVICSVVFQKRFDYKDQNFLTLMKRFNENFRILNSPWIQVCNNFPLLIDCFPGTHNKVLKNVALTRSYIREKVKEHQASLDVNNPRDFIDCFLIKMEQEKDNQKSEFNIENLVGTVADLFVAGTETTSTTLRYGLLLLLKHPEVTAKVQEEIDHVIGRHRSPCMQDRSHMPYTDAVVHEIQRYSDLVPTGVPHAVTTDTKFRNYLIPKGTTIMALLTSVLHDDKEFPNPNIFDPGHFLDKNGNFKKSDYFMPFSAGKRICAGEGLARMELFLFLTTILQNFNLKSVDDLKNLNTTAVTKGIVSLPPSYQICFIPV

In the case of `NCCO` [Etn, monoethanolamine], the IC50 [1] is reported as over 100 µM, the “reduction of cell survival” value [2] is reported as 30–52% and the “decrease in cell viability” value [3] is reported as ~ 11%. For the same compound, the “Ki67-positive cells in treated tumors” value [4] was ~ 40%, the “effect on cell survival” value [5] was “unaffected” and the “reduction in HIF1-α transcripts levels compared to control cells” value [6] was 50 fold. For the same compound, the “Annexin-V positive cells upon treatment” value [7] was ~ 25%, the “increase of intracellular PhosE levels relative to control cells” value [8] was ~ 40 fold and the IC50 [9] was over 100 µM. The “IC50, cell proliferation” value [10] was 290 µg/mL (≈ 4.75 mM), the IC50 [11] was over 100 µM and the acute toxicity ([12]; single oral dose 5 g/kg (limit dose), male and female rats, monitored one week) was “does not induce any acute toxicity”. The “survival after one week” value ([12]; single oral dose 5 g/kg, five male and five female rats) was “all rats were alive”, the “reduction in tumor volume” value ([13]; 40 mg/kg oral gavage, pH 5 (phosphoric acid), 4 weeks) was ~ 67% and the “reduction in tumor weight” value [13, 38] was ~ 55%. For the same compound, the “change in body weight over treatment course” value (from here on “change in body weight”) ([13]; 40 mg/kg oral, 4 weeks, PC-3-luc tumor bearing mice) was “no apparent change in body weight”, the “change in intratumoral Etn levels versus control mice” value [13, 39] was “did not observe any significant change” and the “intratumoral PhosE level, increase over control mice” value [13, 39] was ~ 38%. The “IC50, cell proliferation” value [14] was 1900 µg/mL (≈ 31.1 mM), the “IC50, cell proliferation” value [15] was 550 µg/mL (≈ 9 mM) and the “reduction of cell survival” value ([16]; 0.5 mg/ml, PC-3, 48h) was ~ 38%. The “reduction in cell proliferation” value ([16]; 1 mg/ml Etn alone, PC-3, 48h) was ~ 33%, the “half-maximal concentration (IC50), cell proliferation” value ([16]; PC-3, MTT, 48h) was ~ 0.88 mg/ml and the “decrease in colony numbers” value [17] was ~ 97%. The “stability in SIF” value ([18]; SIF pH 6.8, over time (0-120 min), LC-MS/MS) was “remained unchanged”, the IC50 [19] was over 100 µM and the IC50 [20] was over 100 µM. The IC50 [21] was over 100 µM, the “stability in SGF” value [22] was “stable” and the IC50 [23] was over 100 µM. The IC50 [24] was over 100 µM, the “dependence of absorption on formulation pH or acid” value [25] was “independent of pH” and the IC50 ([26]; read-out: IC50 CYP1A2) was over 100 µM. The “increase in p53 transcript levels compared to controls” value [27] was 1.2 fold, the “glucose content in cells versus control” value [28] was “significantly reduced” and the “glutamine content in cells versus control” value [28] was “significantly reduced”. The “glucose content in tumors versus control” value [29] was “significantly reduced”, the “glutamine content in tumors versus control” value [29] was “significantly reduced” and the “reduction in tumor volume” value [30, 38] was ~ 42%. The “reduction in tumor weight” value [30, 38] was ~ 29%, the “change in body weight” value ([30]; 40 mg/kg oral, 4 weeks, DU145 tumor bearing mice) was “no apparent change in body weight” and the “reduction of OCR compared to controls” value [31] was ~ 26%. For the same compound, the “decrease in tumor volume” value ([32]; 40 mg/kg oral gavage) was ~ 44%, the “change in body weight” value ([32]; 40 mg/kg oral, HCT116 tumor bearing mice) was “no apparent change in body weight” and the “HIF1-α protein expression in treated versus control tumors” value [33] was “downregulation”. For the same compound, the “Cmax of Etn relative to Cmax of PhosE” value ([34]; after oral Etn 40 mg/kg) was 32 fold, the Cmax ([34]; after oral Etn 40 mg/kg) was 17370 ng/mL and the “time to reach peak plasma concentration” value ([34]; after oral Etn 40 mg/kg) was 10 min. The Cmax ([34]; after oral PhosE 60 mg/kg) was 4320 ng/mL.

With `NCCOP(=O)(O)O` [PhosE, phosphoethanolamine] the IC50 [1] was over 100 µM, the “inhibition of proliferation and colony formation” value [35] was “ineffective” and the “increase of intracellular PhosE levels relative to control cells” value [8] was ~ 15 fold. The “partitioning into RBCs (blood to plasma concentration ratio)” value [36] was “lack of preferential partitioning into RBCs”, the IC50 [9] was over 100 µM and the IC50 [11] was over 100 µM. The “effect on colony numbers compared to control cells” value [17] was “ineffective”, the “decrease in concentration in SIF” value ([18]; SIF pH 6.8, after 2h) was ~ 35% and the IC50 [19] was over 100 µM. The IC50 [20] was over 100 µM, the IC50 [21] was over 100 µM and the “volume of distribution (Vd)” value ([37]; intravenous PhosE 3 mg/kg) was 4.82 L/kg. For the same compound, the “clearance (CL)” value ([37]; intravenous, Etn 2 mg/kg, PhosE 3 mg/kg) was 101.92 mL/min/kg, the “stability in SGF” value [22] was “stable” and the IC50 [23] was over 100 µM. The IC50 [24] was over 100 µM, the IC50 [26] was over 100 µM and the Cmax ([34]; after oral Etn 40 mg/kg) was 550 ng/mL. The “time to reach peak plasma concentration” value ([34]; after oral Etn 40 mg/kg) was 10 min, the Cmax ([34]; after oral PhosE 60 mg/kg) was 1140 ng/mL and the oral bioavailability ([34]; oral Etn 40 mg/kg, PhosE 60 mg/kg vs intravenous 2 and 3 mg/kg) was 19%.
